Target: T1, hP2X3 (human Purinergic P2X receptors subtype 3), clone B (Homo sapiens, UniProt P56373)
T1 sequence (P56373 1-397): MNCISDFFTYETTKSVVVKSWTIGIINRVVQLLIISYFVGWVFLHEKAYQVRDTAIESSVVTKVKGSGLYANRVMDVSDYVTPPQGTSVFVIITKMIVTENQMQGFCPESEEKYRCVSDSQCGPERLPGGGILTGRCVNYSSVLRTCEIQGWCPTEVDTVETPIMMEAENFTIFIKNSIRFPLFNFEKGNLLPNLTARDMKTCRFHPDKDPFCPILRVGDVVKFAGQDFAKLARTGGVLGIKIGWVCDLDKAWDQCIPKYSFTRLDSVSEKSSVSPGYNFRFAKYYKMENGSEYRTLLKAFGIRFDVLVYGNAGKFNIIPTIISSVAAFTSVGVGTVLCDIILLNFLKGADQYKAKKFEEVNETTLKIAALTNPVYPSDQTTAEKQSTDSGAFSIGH
Assay: hP2X3 FLIPR calcium (Fluo-4) antagonist assay, clone B
Conditions: Human P2X3 FLIPR Clone B IC50 (nM), RLE cells expressing hP2X3 clone B (NM_002559); agonist 500 nM α,β-methylene-ATP

IC50 [nM]	SMILES
390	CCOc1ccc(C(C)N(C)c2nc(N3CCN(C(C)=O)CC3)nc3c2CN(C(C)C)C3=O)cc1 (stereo not drawn) [Example 157, 2-(4-acetylpiperazin-1-yl)-4-((1-(4-ethoxyphenyl)ethyl)(methyl)amino)-6-isopropyl-5H-pyrrolo[3,4-d]pyrimidin-7(6H)-one]
320	CC(=O)N1CCN(c2nc(N[C@H](C)c3ccc4c(c3)CCO4)c3c(n2)C(=O)N(C(C)C)C3)CC1 [Example 160, (R)-2-(4-acetylpiperazin-1-yl)-4-(1-(2,3-dihydrobenzofuran-5-yl)ethylamino)-6-isopropyl-5H-pyrrolo[3,4-d]pyrimidin-7(6H)-one]
720	CC(=O)N1CCN(c2nc(N[C@H](C)c3ccc(C(C)(C)C#N)cc3)c3c(n2)C(=O)N(C(C)C)C3)CC1 [Example 161, (R)-2-(4-(1-(2-(4-acetylpiperazin-1-yl)-6-isopropyl-7-oxo-6,7-dihydro-5H-pyrrolo[3,4-d]pyrimidin-4-ylamino)ethyl)phenyl)-2-methylpropanenitrile]
950	CCOc1ccc(CN(CC2CC2)c2nc(N3CCN(C(C)=O)CC3)nc3c2CN(C(C)C)C3=O)cc1 [Example 162, 2-(4-acetylpiperazin-1-yl)-4-((cyclopropylmethyl)(4-ethoxybenzyl)amino)-6-isopropyl-5H-pyrrolo[3,4-d]pyrimidin-7(6H)-one]
1700	CC(=O)N1CCN(c2nc(NC(C)c3ccc(C(C)(C)C#N)c(F)c3)c3c(n2)C(=O)N(C(C)C)C3)CC1 (stereo not drawn) [Example 163, 2-(4-(1-(2-(4-acetylpiperazin-1-yl)-6-isopropyl-7-oxo-6,7-dihydro-5H-pyrrolo[3,4-d]pyrimidin-4-ylamino)ethyl)-2-fluorophenyl)-2-methylpropanenitrile]
65	CCOc1ccc([C@@H](C)Nc2nc(N3CCN(C(C)=O)CC3)nc3c2CN(C(C)C)C3=O)cc1C [Example 167, (R)-2-(4-acetylpiperazin-1-yl)-4-(1-(4-ethoxy-3-methylphenyl)ethylamino)-6-isopropyl-5H-pyrrolo[3,4-d]pyrimidin-7(6H)-one]
80	CCOc1ccc([C@@H](C)Nc2nc(N3CCN(C(C)=O)CC3)nc3c2CN(C(C)C)C3=O)c(C)c1 [Example 168, (R)-2-(4-acetylpiperazin-1-yl)-4-(1-(4-ethoxy-2-methylphenyl)ethylamino)-6-isopropyl-5H-pyrrolo[3,4-d]pyrimidin-7(6H)-one]
51	CC(=O)N1CCN(c2nc(N[C@H](C)c3ccc4c(c3)CCC(C)(C)O4)c3c(n2)C(=O)N(C(C)C)C3)CC1 [Example 169, (R)-2-(4-acetylpiperazin-1-yl)-4-(1-(2,2-dimethylchroman-6-yl)ethylamino)-6-isopropyl-5H-pyrrolo[3,4-d]pyrimidin-7(6H)-one]
96	CC(=O)N1CCN(c2nc(N[C@H](C)c3ccc(C)c(C)c3)c3c(n2)C(=O)N(C(C)C)C3)CC1 [Example 170, (R)-2-(4-acetylpiperazin-1-yl)-4-(1-(3,4-dimethylphenyl)ethylamino)-6-isopropyl-5H-pyrrolo[3,4-d]pyrimidin-7(6H)-one]
290	CC(=O)N1CCN(c2nc(N[C@H](C)c3ccc(Cl)c(C(F)(F)F)c3)c3c(n2)C(=O)N(C(C)C)C3)CC1 [Example 171, (R)-2-(4-acetylpiperazin-1-yl)-4-(1-(4-chloro-3-(trifluoromethyl)phenyl)ethylamino)-6-isopropyl-5H-pyrrolo[3,4-d]pyrimidin-7(6H)-one]
44	CC(=O)N1CCN(c2nc(N[C@H](C)c3ccc4c(c3)CCC4)c3c(n2)C(=O)N(C(C)C)C3)CC1 [Example 172, (R)-2-(4-acetylpiperazin-1-yl)-4-(1-(2,3-dihydro-1H-inden-5-yl)ethylamino)-6-isopropyl-5H-pyrrolo[3,4-d]pyrimidin-7(6H)-one]

Second part, the compound before the results:

SMILES	IC50 [nM]
CC(C)N1Cc2c(NCc3cnc4ccccc4c3)nc(N3CCn4cnnc4C3)nc2C1=O [Example 137, 2-(5,6-Dihydro-[1,2,4]triazolo[4,3-a]pyrazin-7(8H)-yl)-6-isopropyl-4-(quinolin-3-ylmethylamino)-5H-pyrrolo[3,4-d]pyrimidin-7(6H)-one]	680
CC(=O)N1CCN(c2nc(NC(C)(C)Cc3ccc(F)cc3)c3c(n2)C(=O)N(C(C)C)C3)C(C)C1 (stereo not drawn) [Example 139, 2-(4-Acetyl-2-methyl-piperazin-1-yl)-4-[2-(4-fluoro-phenyl)-1,1-dimethyl-ethylamino]-6-isopropyl-5,6-dihydro-pyrrolo[3,4-d]pyrimidin-7-one]	1000
CC(=O)N1CCN(c2nc(NCc3cc(C(C)(C)C)[nH]n3)c3c(n2)C(=O)N(C(C)C)C3)CC1 [Example 143, 4-(4-acetylpiperazin-1-yl)-8-propan-2-yl-2-[(5-tert-butyl-1H-pyrazol-3-yl)methylamino]-3,5,8-triazabicyclo[4.3.0]nona-1,3,5-trien-7-one]	160
CC(=O)N1CCN(c2nc(NCc3nc(-c4ccccc4)no3)c3c(n2)C(=O)N(C(C)C)C3)CC1 [Example 145, 4-(4-acetylpiperazin-1-yl)-2-[(3-phenyl-1,2,4-oxadiazol-5-yl)methylamino]-8-propan-2-yl-3,5,8-triazabicyclo[4.3.0]nona-1,3,5-trien-7-one]	3200
CC(=O)N1CCN(c2nc(NCc3n[nH]c4c3CCC4)c3c(n2)C(=O)N(C(C)C)C3)CC1 [Example 151, 4-(4-acetylpiperazin-1-yl)-2-(6,7-diazabicyclo[3.3.0]octa-7,9-dien-8-ylmethylamino)-8-propan-2-yl-3,5,8-triazabicyclo[4.3.0]nona-1,3,5-trien-7-one]	940
CC(=O)N1CCN(c2nc(NCc3cn(C4CCCC4)nc3C)c3c(n2)C(=O)N(C(C)C)C3)CC1 [Example 152, 4-(4-acetylpiperazin-1-yl)-2-[(1-cyclopentyl-3-methyl-pyrazol-4-yl)methylamino]-8-propan-2-yl-3,5,8-triazabicyclo[4.3.0]nona-2,4,10-trien-7-one]	270
CC(=O)N1CCN(c2nc(NCc3cc(-c4ccccc4)n(C)n3)c3c(n2)C(=O)N(C(C)C)C3)CC1 [Example 153, 4-(4-acetylpiperazin-1-yl)-2-[(1-methyl-5-phenyl-pyrazol-3-yl)methylamino]-8-propan-2-yl-3,5,8-triazabicyclo[4.3.0]nona-1,3,5-trien-7-one]	120
CC(=O)N1CCN(c2nc(NCc3cc(-c4ccccc4)nn3C)c3c(n2)C(=O)N(C(C)C)C3)CC1 [Example 154, 4-(4-acetylpiperazin-1-yl)-2-[(2-methyl-5-phenyl-pyrazol-3-yl)methylamino]-8-propan-2-yl-3,5,8-triazabicyclo[4.3.0]nona-1,3,5-trien-7-one]	160
CC(=O)N1CCN(c2nc(NCc3cn4ccccc4n3)c3c(n2)C(=O)N(C(C)C)C3)CC1 [Example 155, 4-(4-acetylpiperazin-1-yl)-2-(1,7-diazabicyclo[4.3.0]nona-2,4,6,8-tetraen-8-ylmethylamino)-8-propan-2-yl-3,5,8-triazabicyclo[4.3.0]nona-1,3,5-trien-7-one]	500
CCOc1cccc([C@@H](C)Nc2nc(N3CCN(C(C)=O)CC3)nc3c2CN(C(C)C)C3=O)c1 [Example 156, (R)-2-(4-acetylpiperazin-1-yl)-4-(1-(3-ethoxyphenyl)ethylamino)-6-isopropyl-5H-pyrrolo[3,4-d]pyrimidin-7(6H)-one]	830

Source: US20090099195A1 (ASTRAZENECA AB, priority 2007, published 2009)
